Data from patent publication US8986677B2, “Therapeutic compositions and methods” (Pop Test Cortisol LLC, priority 2012, dated 2015).

Assays:
[1] = system: adult male rats
[2] = system: organotypic hippocampal slice cultures, CA1 region pyramidal cells; test: Ethanol withdrawal toxicity (propidium iodide uptake) in organotypic hippocampal slice cultures; assay type: cell-based
Text: (FIG. 2A). […] Co-exposure to the selective glucocorticoid receptor antagonist ORG 34517 with ethanol and corticosterone prevented this withdrawal toxicity. Representative PI images above, (FIG. 2B). Results shown in graph form. *=P<0.05 vs control; **=P<0.05 vs EtOH WD+CORT.
Corticosterone's exacerbation of ethanol withdrawal toxicity is blocked by […] coadministration. […] (FIG. 2). […] Co-exposure to the selective glucocorticoid receptor antagonist ORG 34517 with ethanol and corticosterone prevented this withdrawal toxicity. Representative PI images above, graphed below. *=P<0.05 vs control; **=P<0.05 vs EtOH WD+CORT.

[3] = biological target: T1, glucocorticoid receptor (Homo sapiens, UniProt P04150); settings: cited from earlier work
T1 sequence (P04150 1-777): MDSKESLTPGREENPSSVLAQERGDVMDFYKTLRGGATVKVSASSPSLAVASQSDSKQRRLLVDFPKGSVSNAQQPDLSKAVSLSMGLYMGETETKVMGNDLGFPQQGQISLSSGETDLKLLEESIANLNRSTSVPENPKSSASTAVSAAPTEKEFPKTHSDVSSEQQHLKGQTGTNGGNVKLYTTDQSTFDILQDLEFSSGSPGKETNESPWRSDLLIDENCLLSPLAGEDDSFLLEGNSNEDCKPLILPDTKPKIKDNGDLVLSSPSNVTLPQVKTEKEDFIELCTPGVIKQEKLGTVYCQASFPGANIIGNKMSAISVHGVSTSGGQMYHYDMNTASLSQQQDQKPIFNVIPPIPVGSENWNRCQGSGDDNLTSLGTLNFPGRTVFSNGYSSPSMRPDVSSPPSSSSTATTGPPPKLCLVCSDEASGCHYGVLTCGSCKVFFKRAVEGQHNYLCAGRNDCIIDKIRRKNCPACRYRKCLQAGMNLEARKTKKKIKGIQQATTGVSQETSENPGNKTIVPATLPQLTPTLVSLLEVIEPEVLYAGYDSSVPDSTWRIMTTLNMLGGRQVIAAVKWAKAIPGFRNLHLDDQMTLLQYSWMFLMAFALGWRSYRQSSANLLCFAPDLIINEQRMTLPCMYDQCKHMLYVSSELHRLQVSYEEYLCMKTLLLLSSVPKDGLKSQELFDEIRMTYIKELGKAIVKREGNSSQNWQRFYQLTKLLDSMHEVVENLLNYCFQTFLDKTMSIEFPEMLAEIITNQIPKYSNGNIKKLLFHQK

[4] = biological target: T2, estrogen receptor (Homo sapiens, UniProt P03372); settings: cited from earlier work
T2 sequence (P03372 1-595): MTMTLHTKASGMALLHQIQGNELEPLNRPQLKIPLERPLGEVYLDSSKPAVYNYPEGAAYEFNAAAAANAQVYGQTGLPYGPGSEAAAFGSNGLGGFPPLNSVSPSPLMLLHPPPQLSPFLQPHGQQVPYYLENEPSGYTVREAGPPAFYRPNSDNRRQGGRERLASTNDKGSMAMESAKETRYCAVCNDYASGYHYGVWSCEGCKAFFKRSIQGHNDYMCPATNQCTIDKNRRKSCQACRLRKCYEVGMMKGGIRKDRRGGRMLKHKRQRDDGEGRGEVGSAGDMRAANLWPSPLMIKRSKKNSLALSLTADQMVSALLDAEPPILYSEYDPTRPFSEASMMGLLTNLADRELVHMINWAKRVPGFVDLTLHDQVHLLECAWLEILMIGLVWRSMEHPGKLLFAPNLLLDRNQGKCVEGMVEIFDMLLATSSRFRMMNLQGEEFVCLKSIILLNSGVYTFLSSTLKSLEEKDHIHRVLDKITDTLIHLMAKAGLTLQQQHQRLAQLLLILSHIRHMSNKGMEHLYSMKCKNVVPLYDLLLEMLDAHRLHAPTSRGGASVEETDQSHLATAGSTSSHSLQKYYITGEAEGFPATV

[5] = biological target: T3, progesterone receptor (Homo sapiens, UniProt P06401); settings: cited from earlier work
T3 sequence (P06401 1-933): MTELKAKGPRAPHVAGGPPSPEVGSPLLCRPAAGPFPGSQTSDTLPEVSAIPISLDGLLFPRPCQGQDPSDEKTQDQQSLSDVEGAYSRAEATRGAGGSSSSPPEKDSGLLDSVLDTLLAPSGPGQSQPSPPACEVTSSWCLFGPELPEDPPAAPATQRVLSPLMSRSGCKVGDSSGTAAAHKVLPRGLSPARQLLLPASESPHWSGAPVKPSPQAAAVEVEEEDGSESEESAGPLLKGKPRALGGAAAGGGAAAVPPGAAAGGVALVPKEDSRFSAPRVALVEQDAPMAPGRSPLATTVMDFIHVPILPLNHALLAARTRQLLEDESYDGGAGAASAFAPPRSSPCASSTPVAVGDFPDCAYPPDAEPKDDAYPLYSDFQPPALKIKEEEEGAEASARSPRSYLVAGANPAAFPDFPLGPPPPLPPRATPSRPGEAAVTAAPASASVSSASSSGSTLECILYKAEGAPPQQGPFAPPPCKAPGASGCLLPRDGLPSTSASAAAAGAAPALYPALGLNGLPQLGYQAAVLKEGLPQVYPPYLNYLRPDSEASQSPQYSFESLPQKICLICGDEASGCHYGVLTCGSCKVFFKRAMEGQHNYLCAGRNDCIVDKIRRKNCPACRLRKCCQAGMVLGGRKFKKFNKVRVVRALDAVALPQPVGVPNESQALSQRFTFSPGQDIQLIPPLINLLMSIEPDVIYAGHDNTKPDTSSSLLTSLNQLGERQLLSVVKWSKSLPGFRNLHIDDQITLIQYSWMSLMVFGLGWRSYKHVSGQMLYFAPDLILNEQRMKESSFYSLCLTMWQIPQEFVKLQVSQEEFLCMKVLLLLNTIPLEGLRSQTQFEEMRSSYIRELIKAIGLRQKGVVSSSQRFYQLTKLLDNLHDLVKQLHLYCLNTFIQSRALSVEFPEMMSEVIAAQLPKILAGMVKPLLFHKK

[6] = all phase I and phase II clinical trials performed with the compound; cited from earlier work

## CCO [ethanol]
[1]; male, rat, in vivo, 4 days
  peak blood ethanol levels: 180.27-103.5

## C[C@]12C[C@H](O)[C@H]3[C@@H](CCC4=CC(=O)CC[C@@]43C)[C@@H]1CC[C@@H]2C(=O)CO [corticosterone]
[2]; corticosterone 1 μM with ethanol 50 mM, then 1 day of ethanol withdrawal in the presence of corticosterone
  toxicity (propidium iodide uptake) in CA1 region pyramidal cells: significant toxicity
[2]; corticosterone alone
  propidium iodide uptake, exposure alone: did not alter

## CC#C[C@]1(O)CC[C@H]2[C@@H]3CCC4=CC(=O)CCC4=C3[C@@H](c3ccc4c(c3)OCO4)C[C@@]21C [ORG 34517, (11β,17β)-11-(1,3-benzodioxol-5-yl)-17-hydroxy-17-(1-propynyl)estra-4,9-dien-3-one]
[2]; co-exposure with ethanol (50 mM) and corticosterone (1 μM), 1 day of ethanol withdrawal, P<0.05 vs EtOH WD+CORT
  ethanol withdrawal toxicity (propidium iodide uptake, CA1 region): prevented
[1]; 20 mg/kg s.c. once daily immediately prior to binge ethanol (i.g.) at 0800 hrs on 4 consecutive days, adult male rats, P<0.001 vs EtOH WD
  behavioral symptoms of the ethanol withdrawal syndrome: significantly reduced
[1]; 20 mg/kg s.c. once daily prior to binge ethanol, 4 days, adult male rats
  reductions in whole body tremor and wet shakes: most evident
[1]; rat, in vivo
  behavior of ethanol-naïve rats: did not alter behavior in any manner
[3]
  glucocorticoid receptor binding affinity: high
[4]
  cross-binding / affinity for estrogen receptor: without significant cross-binding
[5]
  cross-binding / affinity for progesterone receptor: without significant cross-binding
[6]
  significant toxicities and side effects: none were identified
